# In patent publication US10898504B2, “Substituted nucleoside analogues for use as PRMT5 inhibitors” (Janssen Pharmaceutica NV, priority 2016, dated 2021):
# Values joined by “and” are separate entries in the source; they are usually repeats but may differ in a detail not shown here. Identical values can stand only once.
# How the values were obtained:
# [1] = target: T1, PRMT5-MEP50 enzyme (Homo sapiens, UniProt O14744); test: In vitro assay (Assay 1): PRMT5-MEP50 high throughput mass spectrometer assay, inhibition of SAH formation; format: biochemical; conditions: individual measurements shown, read-out: pIC50 Assay 1 (converted)
# T1 construct: One virus expresses full length human PRMT5 with Flag-tag at N-terminus
# T1 sequence (O14744 whole entry): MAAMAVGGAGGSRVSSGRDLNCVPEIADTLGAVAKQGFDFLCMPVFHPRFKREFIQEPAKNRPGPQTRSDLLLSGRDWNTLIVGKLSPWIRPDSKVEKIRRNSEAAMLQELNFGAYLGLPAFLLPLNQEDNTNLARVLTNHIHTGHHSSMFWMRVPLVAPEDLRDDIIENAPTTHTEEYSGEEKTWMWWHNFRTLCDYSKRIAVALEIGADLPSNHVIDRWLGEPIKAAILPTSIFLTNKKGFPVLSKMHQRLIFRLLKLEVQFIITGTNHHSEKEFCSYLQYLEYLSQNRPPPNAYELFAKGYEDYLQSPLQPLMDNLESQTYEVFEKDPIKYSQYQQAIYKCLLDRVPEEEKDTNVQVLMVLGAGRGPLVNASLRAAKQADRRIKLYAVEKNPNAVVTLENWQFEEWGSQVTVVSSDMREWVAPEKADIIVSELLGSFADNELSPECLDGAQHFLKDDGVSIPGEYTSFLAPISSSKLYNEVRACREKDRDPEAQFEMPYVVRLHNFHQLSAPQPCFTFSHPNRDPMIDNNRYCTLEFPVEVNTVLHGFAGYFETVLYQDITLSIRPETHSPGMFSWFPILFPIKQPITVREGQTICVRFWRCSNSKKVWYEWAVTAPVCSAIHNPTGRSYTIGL
# T1 sequence (Q9BQA1 whole entry partner): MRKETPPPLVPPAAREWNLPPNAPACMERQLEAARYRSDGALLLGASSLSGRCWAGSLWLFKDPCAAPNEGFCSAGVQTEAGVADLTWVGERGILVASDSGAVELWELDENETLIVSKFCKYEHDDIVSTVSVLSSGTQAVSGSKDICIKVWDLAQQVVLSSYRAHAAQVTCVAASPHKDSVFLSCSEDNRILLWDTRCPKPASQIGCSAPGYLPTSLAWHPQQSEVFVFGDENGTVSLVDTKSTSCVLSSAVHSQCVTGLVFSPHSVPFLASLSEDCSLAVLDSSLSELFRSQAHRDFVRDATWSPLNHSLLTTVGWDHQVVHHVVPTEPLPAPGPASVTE
# Excerpt: EXPERIMENTAL PROCEDURES IN VITRO ASSAY (ASSAY 1)
# PRMT5-MEP50 enzyme was purchased from Charles River (Argenta). The enzyme complex was produced in insect cells (Sf9) infected simultaneously with two baculoviruses. One virus expresses full length human PRMT5 with Flag-tag at N-terminus, the second virus expresses full length MEP50 with His6-TEV cleavage at N-terminus. The protein was affinity purified using anti-Flag (M2) beads eluted with 3×FLAG peptide, followed by His-Select eluted with 0.5M imidazole. Eluted protein was then dialysed against tris-buffered saline (TBS) (pH 8.0) containing 20% glycerol and 3 mM dithiothreitol (DTT).
# Full-length untagged human recombinant histone H2A (residues 1-130, Genbank Accession #NM_021052, MW=14.1 kDa) expressed in E. coli was purchased from Reaction Biology Corporation, Cat #HMT-11-146. Reagents used for making reaction buffer or stopping reaction were purchased including Tris base (Sigma Cat #T-1503), NaCl (Sigma Cat #RGF-3270), MgCl2 (Sigma Cat #M0250), DTT (Invitrogen Cat #15508-013) and Formic Acid (Riedel deHaen, Cat #33015)
# High Throughput Mass Spectrometer Assay
# PRMT5 catalyzes the sequential methylations of the terminal nitrogen atoms on the guanidine groups of arginine residues within proteins using co-substrate S-adenosyl-L-methionine (AdoMet, SAM), forming mono-methyl (MMA), symmetric-dimethyl arginine (sDMA) and S-adenosyl-L-homocysteine (AdoHcy, SAH). The enzyme activity was determined by following the product SAH formation using high throughput mass spectrometry (Agilent Rapidfire 300 System coupled to a Sciex 4000 series QTrapm triple-quad MS/MS). The reaction buffer was 20 mM Tris-HC, pH 8.5, 50 mM NaCl, 5 mM MgCl2 and 1 mM DTT. The reaction activity was stopped using 1% formic acid (final concentration).
# The IC50 Studies were performed using eleven point dosing series made for each compound by serially diluted 1:2 in dimethyl sulfoxide (DMSO), with point 12 being a DMSO control. Compounds were first spotted to plates, and followed by addition of 2 μM SAM and 0.6 μM H2A (histone H2A) solution mixture. The same volume of enzyme solution was added to initiate the enzymatic reactions. The final concentrations of the reaction are at 1 μM SAM, 0.3 μM H2A and 10 nM enzyme. The reaction was incubated at 30° C. for 60 minutes (min) and then quenched by addition of formic acid to a final concentration of 1%. The inhibitions of SAH formation in the presence of compounds were calculated as a percentage of the control relative to the uninhibited reaction as a function of inhibitor concentration. The data were fit as follows: Y=Bottom+(Top−Bottom)/(1+10^((log IC50−X)*h))
# where IC50 is the inhibitor concentration (same unit as X) at 50% inhibition and h is the Hill slope. Y is percent of inhibition, X is log of compound concentration. Bottom and Top are the plateaus in same units as Y.
# [2] = tested on: A549 cells; test: PD assay (Assay 2): inhibition of nuclear symmetric Arginine dimethylation (SYM10 immunohistochemistry) in A549 cells; format: cell-based; conditions: individual measurements shown; for IC50: Homo sapiens, A549, PD assay in A549 cells, read-out: pIC50 Assay 2 (converted); for pIC50 Assay 2: PD assay in A549 cells
# Experimental: EXPERIMENTAL PROCEDURE PD ASSAY (ASSAY 2)
# A549 cells (ATCC, Cat #CCL-185) were cultured in Dulbecco's Modified Eagle's Medium (DMEM) (Sigma, Cat #D5796), supplemented with 10% Fetal Calf Serum (FCS)(HyClone™, Cat #SV30160.03), 100 mM Sodium Pyruvate (Sigma, Cat #S8636), 200 mM L-Glutamine (Sigma, Cat #G7513) and 50 mg/mL Gentamycing (Gibco, Cat #15750-037).
# Reagents used for buffers were purchased: Dulbecco's phosphate buffered saline (DPBS) without Ca/Mg (Sigma, Cat #D8537), phosphate buffered saline (PBS) 10× (Roche, Cat #11 666 789 001), Formalin solution 10% (Sigma, HT50-1-128-4L), MeOH 100% (Sigma, Cat #32213-2.5L), Triton X-100 (Acros, Cat #215680010), Bovine Serum Albumin (BSA) (Sigma, Cat #A2153), Alexa fluor 488 goat anti-rabbit antibody (Life Technologies, Cat #A11034), HCS CellMask Deep Red Stain (Life Technologies, Cat #H32721), Hoechst Stain (Life Technologies, Cat #33258), Anti-dimethyl-Arginine, sym (SYM10) antibody (Millipore, 07-412).
# Immunohistochemistry Procedure
# Cells were plated at 400 cells/40 μL/well in 384 well black plates μclear bottom (Perkin Elmer) and overnight incubated at 37° C., 5% CO2. The IC50 Studies were performed using nine point dosing series ranging from 10 μM to […] for each compound. 80 nL of the respective dilution of the compounds was added using the Labcyte POD 810 (Labcyte) reaching a final DMSO concentration of 0.2% in cell culture. After an incubation period of 48 h at 37° C. and 5% CO2, cells were fixed in 10% formalin solution for 15 min at r.t. and 20 min in ice-cold MeOH, after which they were washed 3× in DPBS. Subsequently, the cells were blocked for 1 h in blocking buffer (PBS+1% BSA and 0.5% Triton X-100) and incubated overnight at 4° C. with the SYM10 antibody diluted 1/2000 in blocking buffer. The cells were washed 3× with washing buffer (PBS+0.1% Triton X-100) and incubated with the Alexa fluor 488 goat anti-rabbit antibody diluted 1/200 in blocking buffer for 1 h at r.t. Subsequently, they were washed 3× with washing buffer and incubated for 30 min at r.t. with PBS containing a 1/5000 dilution of Hoechst Stain and a 1/5000 dilution of the HCS CellMask Deep Red Stain. After a final wash with PBS, the plates were imaged using the 10×W lens of the Opera® system (Perkin Elmer Life Sciences) using following settings (values in nm):
# In the above equations, the following variable names are use: […]
# In the above equations, the following controls were used for normalization: […]
# Low control: minimum level of symmetrically dimethylated Arginines (cells treated with reference compound at 10 μM).
# High control: maximum level of symmetrically dimethylated Arginines (DMSO treated cells).
# IC50 and pIC50 (−log IC50) values were calculated using the appropriate software.
# pIC50 values (Co. No. means compound number; n.d. means not determined).
SMILES,IC50 [1],IC50 [2],pIC50 Assay 2 [2]
Nc1ncnn2c([C@@H]3O[C@H](CN4CCCC45CCN(CC(F)(F)F)CC5)[C@@H](O)[C@H]3O)ccc12 [Compound 141],> 10000 nM,> 10000 nM,
"Nc1ncnc2c1ccn2[C@@H]1O[C@H](CN2CCCC3(CNCCO3)C2)[C@@H](O)[C@H]1O (single isomer, unassigned) [Compound 34]",3980 nM,,<4.7
Nc1ncnc2c1ccn2[C@@H]1O[C@H](CN2CCCC3(CCNC3)C2)[C@@H](O)[C@H]1O (stereo partly shown) [Compound 40],6.31 nM,407 nM,
NCC1CCCCN1C[C@H]1O[C@@H](n2ccc3c(N)ncnc32)[C@H](O)[C@@H]1O (stereo partly shown) [Compound 52],10.2 nM,~1120 nM,
Nc1ncnn2c([C@@H]3O[C@H](CN4CCC(F)(F)C[C@H]4CN4CCCC4)[C@@H](O)[C@H]3O)ccc12 [Compound 159],> 10000 nM,> 20000 nM,
Nc1ncnc2c1ccn2[C@@H]1O[C@H](CN2CCCC23CCN(C2COC2)CC3)[C@@H](O)[C@H]1O [Compound 198],437 nM,~1100 nM,
Nc1ncnc2c1ccn2[C@@H]1O[C@H](CN2CCCC23CCNCC3)[C@@H](O)[C@H]1O [Compound 19],43.7 nM and 11.5 nM,,6.93 and 7.24
Nc1ncnc2c1ccn2[C@@H]1O[C@H](CN2CCOC3(C2)CN(Cc2ccc(Cl)cc2)C3)[C@@H](O)[C@H]1O [Compound 93],3020 nM,~2450 nM,
Nc1ncnn2c([C@@H]3O[C@H](CN4CC(F)(F)C[C@H]4CCN4CCOCC4)[C@@H](O)[C@H]3O)ccc12 [Compound 154],> 10000 nM,> 10000 nM,
Nc1ncnc2c([C@@H]3O[C@H](CN4CCCC45CCNCC5)[C@@H](O)[C@H]3O)cnn12 [Compound 68],229 nM,~1950 nM,
Nc1ncnc2c1ccn2[C@@H]1O[C@H](CN2CCCC(N)C2)[C@@H](O)[C@H]1O (stereo partly shown) [Compound 53],28.8 nM,891 nM,
"Nc1ncnc2c1ccn2[C@@H]1O[C@H](CN2CCCC23CCCNCC3)[C@@H](O)[C@H]1O (single isomer, unassigned) [Compound 118]",35.5 nM,,6.29
Nc1ncnc2c1ccn2[C@@H]1O[C@H](CN2CCCC23CCN(CCOc2ccc(F)cc2)CC3)[C@@H](O)[C@H]1O [Compound 173],347 nM,776 nM,
"Nc1ncnc2c1ccn2[C@@H]1O[C@H](CN2C(C(F)(F)F)CCC23CCNCC3)[C@@H](O)[C@H]1O (single isomer, unassigned) [Compound 115]",23.4 nM,~1660 nM,
NC[C@@H]1CC(F)(F)CN1C[C@H]1O[C@@H](n2ccc3c(N)cccc32)[C@H](O)[C@@H]1O [Compound 71b],51.3 nM,562 nM,
NCC[C@@H]1CCCN1C[C@H]1O[C@@H](n2ccc3c(N)ncnc32)[C@H](O)[C@@H]1O [Compound 57],11.2 nM,158 nM,

SMILES,IC50 [1],IC50 [2],pIC50 Assay 2 [2]
Nc1ncnc2c1ccn2[C@@H]1O[C@H](CN2CCCC23CCN(CCc2ccc(F)cc2)CC3)[C@@H](O)[C@H]1O [Compound 170],42.7 nM,~148 nM,
Nc1ncnc2c1ccn2[C@@H]1O[C@H](CN2CCCC23CCN(CC(F)(F)F)CC3)[C@@H](O)[C@H]1O [Compound 202],2000 nM,~4680 nM,
"Nc1ncnc2c1ccn2[C@@H]1O[C@H](CN2CCCC3(CNCCO3)C2)[C@@H](O)[C@H]1O (single isomer, unassigned) [Compound 33]",240 nM,12000 nM,
CN(C)C[C@@H]1CC(F)(F)CN1C[C@H]1O[C@@H](c2ccc3c(N)ncnn23)[C@H](O)[C@@H]1O [Compound 151],5500 nM,~6170 nM,
CC(C)C(=O)O[C@H]1[C@@H](O)[C@H](n2ccc3c(N)ncnc32)O[C@@H]1CN1CCCC12CCN(C)CC2 [Compound 96],631 nM,20.4 nM,
CCN1CCC2(CCCN2C[C@H]2O[C@@H](c3ccc4c(N)ncnn34)[C@H](O)[C@@H]2O)CC1 [Compound 142],1950 nM,> 10000 nM,
Nc1ncnc2c1ccn2[C@@H]1O[C@H](CN2CCOC3(CCCNC3)C2)[C@@H](O)[C@H]1O (stereo partly shown) [Compound 32],4470 nM,9120 nM,
Nc1ncnn2c([C@@H]3O[C@H](CN4CC(F)(F)C[C@H]4CCN4CCCC4)[C@@H](O)[C@H]3O)ccc12 [Compound 155],2510 nM,> 10000 nM,
Nc1ncnc2c1ccn2[C@@H]1O[C@H](CN2CCCC3(CCNCC3)C2)[C@@H](O)[C@H]1O [Compound 114],33.9 nM,~1070 nM,
"Nc1ncnc2c1ccn2[C@@H]1O[C@H](CN2CCCC23CCCNC3)[C@@H](O)[C@H]1O (single isomer, unassigned) [Compound 119]",155 nM,,~5.97
Nc1ncnc2c1ncn2[C@@H]1O[C@H](CN2CC3(CCN3)C2)[C@@H](O)[C@H]1O [Compound 88],46800 nM,> 10000 nM,
Nc1ncnn2c([C@@H]3O[C@H](CN4CCOC[C@H]4CN4CCCC4)[C@@H](O)[C@H]3O)ccc12 [Compound 131],> 10000 nM,> 20000 nM,
CN1CCC2(CCN2C[C@H]2O[C@@H](n3cnc4c(N)ncnc43)[C@H](O)[C@@H]2O)C1 (stereo partly shown) [Compound 3],1660 nM,> 10000 nM,
CN1CCCC12CCN(C[C@H]1O[C@@H](n3cnc4c(N)ncnc43)[C@H](O)[C@@H]1O)C2 (stereo partly shown) [Compound 15],29500 nM,> 10000 nM,
Nc1ncnc2c1ncn2[C@@H]1O[C@H](CN2CC3(CCCNC3)C2)[C@@H](O)[C@H]1O [Compound 79],21400 nM,> 10000 nM,
CN1CCC2(CCC/C2=C\[C@H]2C[C@@H](n3ccc4c(N)ncnc43)[C@H](O)[C@@H]2O)CC1 [Compound 207],5.01 nM,52.5 nM,
